What was measured:
Format in all cases: cell-based
[1] = biological target: human androgen receptor (full length, wild-type form) (Homo sapiens (Human), UniProt P10275); assay: Transactivation assay for the wild-type androgen receptor (PC-3 cells, MMTV-luciferase reporter); conditions: in the presence of R1881, 16 hours
Text: For determining the androgen receptor-dependent transcription, a cellular assay system was used, consisting of PC-3 cells (Kaighn et al., Invest. Urol. 17: 16-23, 1979), which express the human androgen receptor stably and recombinantly (full length, wild-type form, see Swiss-Prot Acc. No. P10275, Entry Version 159, Sequence Version 2). In addition, these PC3 cells contain a stably integrated reporter gene plasmid, which is based on the commercially available plasmid pGL4.14 (#E6691, Promega Corporation, Madison, Wis., USA) and contains the luciferase gene from the American firefly (Photinus pyralis) under the control of the MMTV promoter (Cato et al., EMBO J. 6: 363-368, 1987). These cells were propagated in routine cell culture at 37° C. and 5% CO2 in a medium containing 90% RPMI 1640 (Invitrogen GmbH, Darmstadt, Germany), 100 U penicillin, 100 μg/ml streptomycin (Invitrogen), 4 mM L-glutamine (Invitrogen), 10% fetal calf serum (FCS Serum Gold, PAA Laboratories GmbH, Cölbe, Germany), 600 μg/ml Geneticin (G418-sulphate, Invitrogen) and 10 μg/ml puromycin (Sigma Aldrich GmbH, Germany).
For carrying out the transactivation assays, approx. 1000 cells per well were plated out in a 384-well cell culture plate in a medium that contained activated charcoal-treated calf serum (FCS Serum Gold, PAA Laboratories) at a concentration of 5% (v/v). The test substances were added in a concentration series from 5.12×10^−12 to 1×10^−5 M in the presence of […] R1881 (methyltrienolone). The test plates were incubated overnight at 37° C. and 5% CO2. After 16 hours, 15 μl of Steady Glo Lysis and Detection reagent (E2550, Promega Corporation, Madison, Wis., USA) was added per well and the luminescence was read in a Topcount Luminometer (PerkinElmer, Waltham, Mass., USA) for 4 seconds per well. The luminescence values obtained were normalized, wherein 100% corresponded to the effect of the unstimulated control (without R1881), and 0% corresponded to the effect of the stimulated control (R1881 plus DMSO instead of test substance). The IC50 value was determined by regression analysis based on a four-parameter equation (minimum, maximum, IC50, Hill coefficient; Y=Max+(Min−Max)/(1+(X/IC50)^Hill)).

[2] = biological target: androgen receptor mutant W741C (Homo sapiens (Human), UniProt P10275, W742C); assay: Transactivation assay for the androgen receptor mutant W741C (transfected PC-3 cells); conditions: in the presence of 1×10^−10 M R1881, 24 hours
Method: PC-3 cells (Kaighn et al., Invest. Urol. 17: 16-23, 1979) were plated out at a density of 10000 cells per well of a 96-well cell culture plate in RMPI 1640 medium (F1235, Biochrom AG, Berlin, Germany), which contained activated charcoal-treated calf serum (FCS Serum Gold, PAA Laboratories) at a concentration of 5% (v/v). On the next day the cells were transiently transfected with the pSG5-vector (#216201 Stratagene), which contained the sequence of the androgen receptor mutant W741C (Haapala et al., Lab Invest. 81(12): 1647-51, 2001), and with a reporter plasmid based on pGL4.14 (#E6691, Promega) with the luciferase-gene (from Photinus pyralis) under the control of the MMTV promoter (Cato et al., EMBO J. 6: 363-8, 1987). The cells were treated with the test substances in concentrations from 1×10^−8 to 1×10^−10 M in the presence of 1×10^−10 M R1881 and were incubated overnight at 37° C. and 5% CO2. After 24 hours, 100 μl of Steady Glo Lysis and Detection reagent (E2550, Promega) was added per well and the luminescence was read in a Victor3 Luminometer (PerkinElmer) for 1 second per well. The luminescence values obtained were normalized, wherein 100% corresponded to the effect of the unstimulated control (without R1881), and 0% corresponded to the effect of the stimulated control (R1881 plus DMSO instead of test substance). The IC50 value was determined by regression analysis based on a four-parameter equation (minimum, maximum, IC50, Hill coefficient; Y=Max+(Min−Max)/(1+(X/IC50)^Hill)).

[3] = biological target: androgen receptor mutant E709Y (Homo sapiens (Human), UniProt P10275, E710Y); assay: Transactivation assay for the androgen receptor mutant E709Y (transfected PC-3 cells); conditions: in the presence of 1×10^−10 M R1881, 24 hours
Method: PC-3 cells (Kaighn et al., Invest. Urol. 17: 16-23, 1979) were plated out at a density of 10000 cells per well of a 96-well cell culture plate in RMPI 1640 medium (F1235, Biochrom AG Berlin, Germany) that contained activated charcoal-treated calf serum (FCS Serum Gold, PAA Laboratories) at a concentration of 5% (v/v). On the next day the cells were transiently transfected with the pSG5-vector (#216201 Stratagene), which contained the sequence of the androgen receptor mutant E709Y (Georget et al., Mol. Endocrinol. 20(4): 724-734, 2006), and with the MMTV-luciferase plasmid (see above, transactivation assay for the androgen receptor mutant W741C). The cells were treated with the test substances in concentrations from 1×10^−8 to 1×10^−10 M in the presence of 1×10^−10 M R1881 and were incubated overnight at 37° C. and 5% CO2. After 24 hours, 100 μl of Steady Glo Lysis and Detection reagent (E2550, Promega) was added per well and the luminescence was read in a Victor3 Luminometer (PerkinElmer) for 1 second per well. The luminescence values obtained were normalized, wherein 100% corresponded to the effect of the unstimulated control (without R1881), and 0% corresponded to the effect of the stimulated control (R1881 plus DMSO instead of test substance). The IC50 value was determined by regression analysis based on a four-parameter equation (minimum, maximum, IC50, Hill coefficient; Y=Max+(Min−Max)/(1+(X/IC50)^Hill)).

[4] = test system: LAPC-4 cells; assay: Proliferation assay with LAPC-4 cells; conditions: Homo sapiens, LAPC4, 168 h; in the presence of 1×10^−9 M R1881, seven days, AlamarBlue; read-out: IC50 LAPC-4 cell proliferation
Method: LAPC-4 cells (Klein et al., Nat Med. 3(4): 402-8, 1997) were plated out at a density of 4000 cells per well of a 96-well cell culture plate in RMPI 1640 medium (F1275, Biochrom AG) that contained activated charcoal-treated calf serum (FCS Serum Gold, PAA Laboratories) at a concentration of 10% (v/v). On the next day the cells were treated with the test substances in concentrations from 1×10^−8 to 1×10^−10 M in the presence of 1×10^−9 M R1881. Cell proliferation was determined seven days later after incubation for 2 hours with AlamarBlue (DAL1100, Invitrogen) (Nakayama et al., J Immunol Methods, 204(2): 205-8, 1997). The fluorescence values obtained were normalized, wherein 100% corresponded to the effect of the unstimulated control (without R1881), and 0% corresponded to the effect of the stimulated control (R1881 plus DMSO instead of test substance). The IC50 value was determined by regression analysis based on a four-parameter equation (minimum, maximum, IC50, Hill coefficient; Y=Max+(Min−Max)/(1+(X/IC50)^Hill)).

[5] = test system: LNCaP cells; assay: Proliferation assay with LNCaP cells; conditions: Homo sapiens, 168 h, in the presence of 1×10^−10 M R1881, seven days, AlamarBlue, read-out: IC50 LNCaP cell proliferation
Method: LNCaP cells (Horoszewicz et al., in “Models for Prostate Cancer” (ed. G. P. Murphy), Alan R. Liss, New York 1981, p. 115-132; Horoszewicz et al., Cancer Res. 43: 1809-1818, 1983) were plated out at a density of 2000 cells per well of a 96-well cell culture plate in RMPI 1640 medium (F1275, Biochrom AG), which contained activated charcoal-treated calf serum (FCS Serum Gold, PAA Laboratories) at a concentration of 5% (v/v). Three days later the cells were treated with the test substances in concentrations from 1×10^−8 to 1×10^−10 M in the presence of 1×10^−10 M R1881. Cell proliferation was determined seven days later after incubation for 2 hours with AlamarBlue (DAL1100, Invitrogen) (Nakayama et al., J Immunol Methods, 204(2): 205-8, 1997). The fluorescence values obtained were normalized, wherein 100% corresponded to the effect of the unstimulated control (without R1881), and 0% corresponded to the effect of the stimulated control (R1881 plus DMSO instead of test substance). The IC50 value was determined by regression analysis based on a four-parameter equation (minimum, maximum, IC50, Hill coefficient; Y=Max+(Min−Max)/(1+(X/IC50)^Hill)).

Sequence of androgen receptor mutant W741C (P10275 whole entry W742C): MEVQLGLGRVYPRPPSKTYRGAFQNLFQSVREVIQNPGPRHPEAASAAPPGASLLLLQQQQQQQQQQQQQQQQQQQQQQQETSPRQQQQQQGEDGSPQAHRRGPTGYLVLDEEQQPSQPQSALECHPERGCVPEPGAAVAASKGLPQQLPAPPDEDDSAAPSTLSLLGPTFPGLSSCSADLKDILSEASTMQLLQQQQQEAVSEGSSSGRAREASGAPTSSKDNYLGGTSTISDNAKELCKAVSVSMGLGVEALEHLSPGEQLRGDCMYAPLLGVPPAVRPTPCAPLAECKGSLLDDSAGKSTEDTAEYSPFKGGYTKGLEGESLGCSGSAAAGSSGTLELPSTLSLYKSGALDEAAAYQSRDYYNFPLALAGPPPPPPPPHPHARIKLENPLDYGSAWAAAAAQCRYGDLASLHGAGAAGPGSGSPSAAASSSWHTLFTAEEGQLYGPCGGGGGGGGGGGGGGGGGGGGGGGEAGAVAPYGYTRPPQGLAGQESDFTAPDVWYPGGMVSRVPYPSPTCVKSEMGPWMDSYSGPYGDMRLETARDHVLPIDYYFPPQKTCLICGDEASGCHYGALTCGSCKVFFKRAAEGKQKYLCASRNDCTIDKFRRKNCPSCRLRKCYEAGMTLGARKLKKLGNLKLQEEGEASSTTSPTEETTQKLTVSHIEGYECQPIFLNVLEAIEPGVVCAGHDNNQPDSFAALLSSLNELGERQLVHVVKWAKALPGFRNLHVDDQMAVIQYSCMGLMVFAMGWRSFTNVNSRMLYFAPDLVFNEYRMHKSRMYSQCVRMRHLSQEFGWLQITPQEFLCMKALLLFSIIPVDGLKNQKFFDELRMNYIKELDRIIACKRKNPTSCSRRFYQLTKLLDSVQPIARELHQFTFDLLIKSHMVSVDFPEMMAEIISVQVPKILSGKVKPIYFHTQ
Sequence of human androgen receptor (full length, wild-type form) (P10275 whole entry): as the sequence (P10275 whole entry W742C) above, with C742W counted along it
Sequence of androgen receptor mutant E709Y (P10275 whole entry E710Y): as the sequence (P10275 whole entry W742C) above, with E710Y, C742W counted along it

| IC50 [1] [nM] | IC50 [2] [nM] | IC50 [3] [nM] | IC50 [5] [nM] | Compound | IC50 [4] [nM] |
| --- | --- | --- | --- | --- | --- |
| 194 | 220 | 175 | – | O=C(NC[C@H]1CC[C@H](Oc2ccnc3ccccc23)CC1)c1cccc(F)c1 [Example 10, N-{[trans-4-(4-quinolyloxy)cyclohexyl]methyl}-3-fluorobenzamide] | 130 |
| 105 | 72 | 56 | – | O=C(NC[C@H]1CC[C@H](Oc2ccnc3ccccc23)CC1)c1ccc(F)c(F)c1 [Example 9, N-{[trans-4-(4-quinolyloxy)cyclohexyl]methyl}-3,4-difluorobenzamide] | 45 |

Continued, compound first:

| Compound | IC50 [1] [nM] | IC50 [2] [nM] | IC50 [3] [nM] | IC50 [5] [nM] | IC50 [4] [nM] |
| --- | --- | --- | --- | --- | --- |
| N#Cc1cccc2c(O[C@H]3CC[C@H](NC(=O)c4ccc(F)c(F)c4)CC3)ccnc12 [Example 24, N-{trans-4-[(8-cyanoquinolin-4-yl)oxy]cyclohexyl}-3,4-difluorobenzamide] | 92 | 72 | 14 | – | – |
| O=C(N[C@H]1CC[C@H](Oc2ccnc3ccccc23)CC1)c1cccc(F)c1 [Example 19, N-{trans-4-(4-quinolyloxy)cyclohexyl}-3-fluorobenzamide] | 32 | – | – | 110 | 48 |
| Cc1cc(C(=O)NC[C@H]2CC[C@H](Oc3ccnc4ccccc34)CC2)no1 [Example 11, N-{[trans-4-(4-quinolyloxy)cyclohexyl]methyl}-5-methylisoxazole-3-carboxamide] | 210 | – | – | 260 | 118 |

From US9428460B2, “N-[4-(quinolin-4-yloxy)cyclohexyl(methyl)](hetero)arylcarboxamides as androgen receptor antagonists, production and use thereof as medicinal products” (BAYER PHARMA AKTIENGESELLSCHAFT, priority 2012, dated 2016)
